Values quoted from earlier work in PMC9395504 (Investigational New Drugs, 2022).

Key:
[1] = system: TP53-WT cancer xenograft models; settings: daily oral administration; cited from earlier work
[2] = system: TP53-WT patient-derived melanoma xenografts; settings: 50 mg/kg, alone or combined with dabrafenib and trametinib; cited from earlier work
serum MIC-1 protein = settings: single-agent AMG 232, cited from earlier work

## CC(C)[C@@H](CS(=O)(=O)C(C)C)N1C(=O)[C@@](C)(CC(=O)O)C[C@H](c2cccc(Cl)c2)[C@H]1c1ccc(Cl)cc1 [AMG 232]
[1]
  effective doses, dose-dependent antitumor activity: 9.1 to 78 mg/kg
[2]
  antitumor activity: demonstrated antitumor activity
Serum MIC-1 protein; daily
  biologically effective AMG 232 dose in humans: at least 240 mg
Serum MIC-1 protein
  daily dose at which significant increases in serum MIC-1 protein were seen: higher than 240 mg
